From PubChem BioAssay AID256 (DTP/NCI, 2004)
Toxic doses and inconclusive results are not listed.

System: CD2F1 mice, L1210 leukemia ip, survival T/C
Test: NCI In Vivo Anticancer Drug Screen. Data for tumor model L1210 Leukemia (intraperitoneal) in CD2F1 (CDF1) mice
Conditions: higher = longer survival
How it was run: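 Implant tumor; dose compound or vehicle; measure endpoint in both groups; report treated divided by control.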

NC(CSC(c1ccccc1)(c1ccccc1)c1ccccc1)C(=O)O (stereo unspecified)
T/C (endpoint: mean survival time, dose: 160.0 mg/kg/injection, schedule: Q01DX001 (oral), vehicle: water): 115 % of control | T/C (endpoint: mean survival time, dose: 160.0 mg/kg/injection, schedule: Q03HX024 (ip), vehicle: clinical formulation): 152 % of control | T/C (endpoint: mean survival time, dose: 160.0 mg/kg/injection, schedule: Q03HX024 (ip), vehicle: saline): 234 % of control | T/C (endpoint: mean survival time, dose: 200.0 mg/kg/injection, schedule: Q01DX009 (sc), vehicle: saline): 86 % of control | T/C (endpoint: mean survival time, dose: 240.0 mg/kg/injection, schedule: Q01DX001 (oral), vehicle: saline): 107 % of control | T/C (endpoint: mean survival time, dose: 240.0 mg/kg/injection, schedule: Q01DX009 (oral), vehicle: saline): 103 % of control | T/C (endpoint: mean survival time, dose: 240.0 mg/kg/injection, schedule: Q04DX003 (oral), vehicle: saline): 111 % of control | T/C (endpoint: mean survival time, dose: 320.0 mg/kg/injection, schedule: Q03HX024 (ip), vehicle: saline): 86 % of control | T/C (endpoint: mean survival time, dose: 400.0 mg/kg/injection, schedule: Q01DX001 (sc), vehicle: saline): 108 % of control | T/C (endpoint: mean survival time, dose: 480.0 mg/kg/injection, schedule: Q01DX001 (oral), vehicle: saline): 107 % of control | T/C (endpoint: mean survival time, dose: 480.0 mg/kg/injection, schedule: Q01DX005 (oral), vehicle: saline): 97 % of control | T/C (endpoint: mean survival time, dose: 480.0 mg/kg/injection, schedule: Q01DX009 (oral), vehicle: saline): 96 % of control | T/C (endpoint: mean survival time, dose: 640.0 mg/kg/injection, schedule: Q01DX001 (oral), vehicle: water): 108 % of control | T/C (endpoint: mean survival time, dose: 640.0 mg/kg/injection, schedule: Q01DX001 (sc), vehicle: water): 180 % of control | T/C (endpoint: mean survival time, dose: 800.0 mg/kg/injection, schedule: Q01DX001 (sc), vehicle: saline): 106 % of control | T/C (endpoint: mean survival time, dose: 960.0 mg/kg/injection, schedule: Q04DX003 (oral), vehicle: saline): 150 % of control | T/C (endpoint: median survival time, dose: 3.9 mg/kg/injection, schedule: Q01DX009 (ip), vehicle: clinical formulation): 91 % of control | T/C (endpoint: median survival time, dose: 5.0 mg/kg/injection, schedule: Q03HX024 (ip), vehicle: water): 111 % of control | T/C (endpoint: median survival time, dose: 7.8 mg/kg/injection, schedule: Q01DX009 (ip), vehicle: clinical formulation): 94 % of control | T/C (endpoint: median survival time, dose: 10.0 mg/kg/injection, schedule: Q01DX009 (ip), vehicle: water): 88 % of control | T/C (endpoint: median survival time, dose: 10.0 mg/kg/injection, schedule: Q03HX024 (ip), vehicle: water): 122 % of control | T/C (endpoint: median survival time, dose: 10.0 mg/kg/injection, schedule: Q04DX003 (ip), vehicle: water): 111 % of control | T/C (endpoint: median survival time, dose: 15.6 mg/kg/injection, schedule: Q01DX009 (ip), vehicle: clinical formulation): 121 % of control | T/C (endpoint: median survival time, dose: 20.0 mg/kg/injection, schedule: Q01DX009 (oral), vehicle: water): 111 % of control | T/C (endpoint: median survival time, dose: 20.0 mg/kg/injection, schedule: Q03HX024 (ip), vehicle: water): 150 % of control | T/C (endpoint: median survival time, dose: 20.0 mg/kg/injection, schedule: Q04DX003 (ip), vehicle: water): 88 % of control | T/C (endpoint: median survival time, dose: 31.3 mg/kg/injection, schedule: Q01DX009 (ip), vehicle: clinical formulation): 118 % of control | T/C (endpoint: median survival time, dose: 31.3 mg/kg/injection, schedule: Q01DX009 (oral), vehicle: clinical formulation): 121 % of control | T/C (endpoint: median survival time, dose: 31.3 mg/kg/injection, schedule: Q03HX008 (oral), vehicle: clinical formulation): 121 % of control | T/C (endpoint: median survival time, dose: 31.3 mg/kg/injection, schedule: Q03HX024 (oral), vehicle: clinical formulation): 88 % of control | T/C (endpoint: median survival time, dose: 40.0 mg/kg/injection, schedule: Q01DX009 (ip), vehicle: water): 88 % of control | T/C (endpoint: median survival time, dose: 40.0 mg/kg/injection, schedule: Q01DX009 (oral), vehicle: water): 111 % of control | T/C (endpoint: median survival time, dose: 40.0 mg/kg/injection, schedule: Q04DX003 (ip), vehicle: water): 88 % of control | T/C (endpoint: median survival time, dose: 62.5 mg/kg/injection, schedule: Q03HX008 (oral), vehicle: clinical formulation): 164 % of control | T/C (endpoint: median survival time, dose: 62.5 mg/kg/injection, schedule: Q03HX016 (oral), vehicle: clinical formulation): 90 % of control | T/C (endpoint: median survival time, dose: 80.0 mg/kg/injection, schedule: Q04DX003 (ip), vehicle: water): 105 % of control | T/C (endpoint: median survival time, dose: 125.0 mg/kg/injection, schedule: Q01DX009 (oral), vehicle: clinical formulation): 114 % of control | T/C (endpoint: median survival time, dose: 125.0 mg/kg/injection, schedule: Q03HX016 (oral), vehicle: clinical formulation): 90 % of control | T/C (endpoint: median survival time, dose: 125.0 mg/kg/injection, schedule: Q04DX003 (oral), vehicle: clinical formulation): 151 % of control | T/C (endpoint: median survival time, dose: 160.0 mg/kg/injection, schedule: Q01DX009 (oral), vehicle: water): 116 % of control | T/C (endpoint: median survival time, dose: 250.0 mg/kg/injection, schedule: Q01DX001 (oral), vehicle: clinical formulation): 119 % of control | T/C (endpoint: median survival time, dose: 250.0 mg/kg/injection, schedule: Q04DX003 (oral), vehicle: clinical formulation): 184 % of control | T/C (endpoint: median survival time, dose: 250.0 mg/kg/injection, schedule: Q08DX002 (oral), vehicle: clinical formulation): 151 % of control | T/C (endpoint: median survival time, dose: 500.0 mg/kg/injection, schedule: Q01DX001 (oral), vehicle: clinical formulation): 98 % of control | T/C (endpoint: median survival time, dose: 500.0 mg/kg/injection, schedule: Q04DX003 (oral), vehicle: clinical formulation): 98 % of control | T/C (endpoint: median survival time, dose: 500.0 mg/kg/injection, schedule: Q08DX002 (oral), vehicle: clinical formulation): 191 % of control
